This is an account of results in patent US7968093B2, “Fully human antibodies directed against the human insulin-like growth factor-1 receptor” (ImClone LLC, priority 2003, dated 2011).

The subject of assay [1] is HT-29 human colon carcinoma. The experiment in a line: HT-29 xenograft, A12 with CPT-11 or paclitaxel. The class given is in vivo, nu/nu mice. Particulars: for inhibition of growth of HT-29 xenografts compared to TBS control: single agent. On the procedure: […] nu/nu mice were injected subcutaneously with HT-29 human colon carcinoma cell suspension, at 5×10^6 cells in 0.4 ml mixed 1:1 with Matrigel. […] All treatments were administered by intraperitoneal injection.
Treatment continued for six weeks and tumor measurements were recorded twice weekly using the formula Volume=(π/6)l×w^2. At day 21 four animals per group were sacrificed and the tumors resected for histological evaluation. Treatment and tumor measurements continued on the remaining animals until day 40. At that time final tumor measurements were recorded, animals sacrificed, and four per group had tumor resected for endpoint histological evaluation.

The test system of assay [2] is HT-29 human colorectal cancer cells. The experiment in a line: HT-29 xenograft, 2F8 alone or with CPT-11. The class given is in vivo, athymic nude (nu/nu) mice. Particulars: 2F8 0.5 mg or 1 mg IP every three days; CPT-11 100 mg/kg IP once a week. On the procedure:
We were interested to determine if the anti-IGF-IR antibodies were capable of inhibiting human tumor growth in vivo in a nude mouse xenograft model. Tumors were induced in 3-4 week old athymic nude (nu/nu) mice by subcutaneous injection of 2-3 million viable HT-29 human colorectal cancer cells in cell culture medium. The tumors were allowed to establish and antibody treatment started when the tumor volume reached 200 mm^3. Ten animals were injected with tumor cells per treatment group. Antibody was injected intraperitoneally (IP) every three days at 1 mg or 0.5 mg in 0.5 ml TBS. The drug irenotecan (CPT-11) (LKT Laboratories) was injected IP (100 mg/kg) once a week for four weeks from the initiation of antibody treatment. Control animals received a class matched irrelevant human IgG antibody. Tumor measurements were performed at regular intervals using Vernier calipers, measuring height, width, and length and calculated to determine the total tumor volume. The study was terminated when control tumors reached 3000 mm^3.

Assay [3] relates to BxPC-3 human pancreatic carcinoma cells. The experiment in a line: BxPC-3 xenograft, A12 with CPT-11 or gemcitabine. The class given is in vivo, athymic nu/nu mice. The following applies: for animals with partial tumor regressions: after five weeks of treatment. The protocol: Athymic nu/nu mice were injected subcutaneously with 2×10^6 BxPC-3 human pancreatic carcinoma cells mixed 1:1 with Matrigel. […] All treatments were administered by intraperitoneal injection. Tumor measurements were recorded twice weekly using the formula Volume=(π/6)l×w^2.
At day 18 three animals per group were sacrificed and the tumors resected for midpoint histological evaluation. Treatment and tumor measurements continued on the remaining animals until day 44 with the exception of the TBS group. […] At termination of the study final tumor measurements were recorded, animals sacrificed, and four per group had tumors resected for endpoint histological evaluation.

The mark [4] stands for this setting: day 12, ip, A12 1 mg 3 times per week, irinotecan 2 mg or paclitaxel 121 μg every 7 days.
Setting [5] is: day 19, ip, A12 1 mg 3 times per week, irinotecan 1 mg or gemcitabine 2.5 mg every 7 days.

Take `CC(=O)O[C@H]1C(=O)[C@@]2(C)[C@H]([C@H](OC(=O)c3ccccc3)[C@]3(O)C[C@H](OC(=O)[C@H](O)[C@@H](NC(=O)c4ccccc4)c4ccccc4)C(C)=C1C3(C)C)[C@]1(OC(C)=O)CO[C@@H]1C[C@@H]2O` [paclitaxel]: the T/C % worked out at 66% in assay [1] (setting [4]); 59% in assay [1] (day 15, same regimens); 62% in assay [1] (day 19, same regimens); 56% in assay [1] (day 22, same regimens); 54% in assay [1] (day 26, same regimens); 55% in assay [1] (day 29, same regimens). In addition, the T/C % in assay [1] (day 33, same regimens) worked out at 52%; in assay [1] (day 36, same regimens) it was 45%; in assay [1] (day 40, same regimens) it was 52%. Further, in assay [1], the “inhibition of growth of HT-29 xenografts compared to TBS control” value is “significantly (P<0.02) inhibited”.

As to `CCc1c2c(nc3ccc(OC(=O)N4CCC(N5CCCCC5)CC4)cc13)-c1cc3c(c(=O)n1C2)COC(=O)[C@]3(O)CC` [CPT-11, irinotecan], the “inhibition of tumor growth” value in assay [2] was “responses were similar to treatment with CPT-11 alone”. For the same compound, the T/C % came out at 63% in assay [1] (setting [4]); 59% in assay [1] (day 15, same regimens); 61% in assay [1] (day 19, same regimens); 52% in assay [1] (day 22, same regimens); 47% in assay [1] (day 26, same regimens); 45% in assay [1] (day 29, same regimens). The T/C % in assay [1] (day 33, same regimens) was determined as 40%; in assay [1] (day 36, same regimens), 40%; in assay [1] (day 40, same regimens) it was 41%; in assay [3] (setting [5]), 52%; in assay [3] (day 23, same regimens), 45%; in assay [3] (day 26, same regimens) it was 35%. Besides, the T/C % in assay [3] (day 30, same regimens) was found to be 34%; in assay [3] (day 32, same regimens), 34%; in assay [3] (day 37, same regimens), 26%. The “inhibition of growth of HT-29 xenografts compared to TBS control” value in assay [1] is reported as “significantly (P<0.02) inhibited”. Moreover, in assay [3], the “animals with partial tumor regressions” value was “no tumor regressions”.

As to `Nc1ccn([C@@H]2O[C@H](CO)[C@@H](O)C2(F)F)c(=O)n1` [Gemcitabine, gemcitabine], the “animals with partial tumor regressions” value in assay [3] is listed as “no tumor regressions”. The “Regressions (individual tumor volumes < day 1 of treatment)” value in assay [3] (day 19, animals regressing/animals in group) is 0/11; in assay [3] (day 23), 0/8; in assay [3] (day 26), 0/8; in assay [3] (day 30) it was 0/8; in assay [3] (day 32), 0/8; in assay [3] (day 37) it was 0/8. The “Regressions (individual tumor volumes < day 1 of treatment)” value in assay [3] (day 41) is 0/8; in assay [3] (day 44), 0/7. For the same compound, the T/C % in assay [3] (setting [5]) worked out at 68%; in assay [3] (day 23, same regimens), 65%; in assay [3] (day 26, same regimens) it was 58%; in assay [3] (day 30, same regimens), 56%; in assay [3] (day 32, same regimens), 48%; in assay [3] (day 37, same regimens), 37%.
